Source: US20150366911A1, “METHODS FOR REJUVENATING RED BLOOD CELLS” (Biomet Biologics, LLC, priority 2013, published 2015)

Key:
[1] = Total Plasma Volume = 2.28 Liters; refer to 2000 Report by Dr. Lobe; cited from earlier work
[2] = Plasma concentration in vivo after transfusion of one unit of 2,3-DPG enhanced cells; settings: Total Plasma Volume = 2.28 Liters
Protocol: A Y-type tube set is assembled is assembled as shown in FIG. 2 and connected to a unit of RBCs. The tube set includes a 0.2 μm filter. RBC enhancement composition (Rejuvesol® Solution) is transferred to the RBCs via a vented spike to form a treated blood composition. The treated blood composition is mixed and incubated, forming an incubated blood composition. The treated blood composition is centrifuged to form a concentration of RBC and a supernatant. The supernatant is transferred to an empty waste bag, and the concentration of RBCs was resuspended in 100 mL additive solution that was transferred from a second transfer bag.
A Y-type tube set is assembled as shown in FIG. 2 and connected to a unit of 250 mL RBCs. 100 mL additive solution, comprising saline, was transferred to the RBCs. The tube set includes a 0.2 μm filter. 50 mL RBC enhancement composition (Rejuvesol® Solution) was transferred to the RBCs via a vented spike to form a treated blood composition. The treated blood composition was mixed and incubated, forming an incubated blood composition. The incubated blood composition was then diluted with 200 mL wash solution from a first transfer bag containing 200 mL wash solution, forming a diluted blood composition. The diluted blood composition was centrifuged to form a concentration of RBCs and a supernatant. The supernatant was transferred to the now empty first transfer bag, and the concentration of RBCs was resuspended in 100 mL additive solution, which was transferred from a second transfer bag.
Blood processed according to Examples 1 and 2 are analyzed for concentrations of rejuvenation materials in the final processed RBC suspensions, with the following results.

Plasma Concentration in vivo after transfusion of one unit, Concept 2, assume 85% Removal [2] [µM] | Plasma Concentration in vivo after transfusion of one unit, Concept 1, assumes 75% Removal [2] [µM] | Structure (SMILES) | Plasma Concentration in vivo after transfusion of one unit, Without Further Processing [1] [µM]
330 | 550 | OC[C@H]1O[C@@H](n2cnc3c(O)ncnc32)[C@H](O)[C@@H]1O [Inosine] | 2190
330 | 550 | CC(=O)C(=O)O [Pyruvate] | 2190
330 | 550 | O=c1[nH]c(=O)c2[nH]c(=O)[nH]c2[nH]1 [Uric Acid] | 2190

Second part, the molecule before the results:

Structure (SMILES) | Plasma Concentration in vivo after transfusion of one unit, Concept 2, assume 85% Removal [2] [µM] | Plasma Concentration in vivo after transfusion of one unit, Concept 1, assumes 75% Removal [2] [µM] | Plasma Concentration in vivo after transfusion of one unit, Without Further Processing [1] [µM]
O=c1[nH]cnc2nc[nH]c12 [Hypoxanthine] | 330 | 550 | 2190
Nc1ncnc2nc[nH]c12 [Adenine] | 16 | 27 | 110
CC(O)C(=O)O (stereo not drawn) [Lactate] | 330 | 550 | 2190
